Data set [1] deals with clinical isolates of T. rubrum. The experiment in a line: Cell survival assay, clinical isolates of T. rubrum plated after 72 h with HXL008. It counts as cell-based, Trichophyton rubrum. As to conditions: 72 h with HXL008 (100 g/mL, 100 μM elsewhere in the source), 5 days at 30° C. On the procedure:
FIGS. 3(a) through (e) are photographic representations of surviving colonies of T. rubrum grown on agar plates after treatment with 100 μM HXL008 for 72 h. Panels (a) to (d) represent clinical isolates 14-01, 14-02, 14-03 and 13-04, respectively. Surviving colonies are marked with a black rectangle. Panel (e) represents the growth of T. rubrum that has not been treated with HXL008.
After incubation for 72 h, the media from wells containing clinical isolates of T. rubrum incubated with 100 […] HXL008 was plated onto fresh Sabouraud dextrose agar. Plates were incubated at 30° C. for 5 days to allow colonies to develop before being photographed.

For data set [2], the system named is Trichophyton rubrum, T. interdigitale, Microsporum fulvum and C. albicans. The data set is described as follows: Inhibition assays summarised across the range of fungal pathogens. The format is cell-based. Particulars: summary of Table 3. Here is the method:
The inhibitory effects of the plant defensins on the growth of Trichophyton rubrum, T. interdigitale, Microsporum fulvum and C. albicans (obtained from the National Mycology Reference Centre, South Australia Pathology at the Women's and Children's Hospital, Adelaide, Australia) are measured essentially as described by Broekaert et al. (1990) FEMS Microbiol Lett 69:55-59. Spores of T. rubrum, T. interdigitale and M. fulvum are isolated from sporulating fungus growing on 1⁄2 strength Sabouraud dextrose agar (SDA). Spores were removed from the plates by the addition of 1⁄2 strength potato dextrose broth (PDB). C. albicans cells are grown in Yeast Peptone Broth (YPD) for 16 h. Spore and cell concentrations are measured using a hemocytometer. Antifungal assays are conducted in 96 well microtitre plates essentially as herein described. Wells are loaded with 20 μL of filter sterilized (0.22 μm syringe filter, Millipore) defensin (10× stock for each final concentration) or water and 80 μL of 5×10^4 spores/mL (T. rubrum, T, interdigitale, M. fulvum) or 5,000 cells/mL (C. albicans) in 1⁄2 strength PDB. The plates are incubated at 30° C. Fungal growth is assayed by measuring optical density at 595 nm ([…]) using a microtitre plate reader (SpectraMax Pro M2; Molecular Devices. Growth is allowed to proceed until the optical density (OD) of the fungus in the absence of any test defensin reached an OD of 0.2. Each test is performed in duplicate.

In data set [3] the test system is Human monocytic lymphoma (U937) cells. The format is cell-based. Here is the method: Human monocytic lymphoma (U937) cells are cultured in RPMI-1640 medium. All culture media are supplemented with 5-10% v/v fetal calf serum, 100 U/ml of penicillin, and 100 μg/ml of streptomycin. Cell lines are cultured at 37° C. in a humidified atmosphere containing 5% v/v CO2. Adherent cell lines are detached from the flask by adding a mixture containing 0.25% v/v trypsin and […]. A flow cytometry-based propidium iodide (PI) uptake assay is performed to analyze the ability of plant defensins to permeabilize U937 cells (essentially as described in Poon et al, 2014). Briefly, cells are suspended to 1×10^6 cells/ml in 0.1% v/v BSA/RPMI-1640 and incubated with plant defensins (10 μM) at 37° C. for 30 min. Samples are added to PBS containing a final concentration of 1 μg/ml PI and placed on ice. Samples are then analyzed immediately using the BD FACSCanto II Flow Cytometer and BD FACSDiva software v6.1.1. The resultant flow cytometry data is analyzed using FlowJo software v8.8.6. Cells are gated appropriately based on forward scatter and side scatter and cell permeabilization is defined by PI-positive staining.

Data set [4] is classed as in vitro ADME, Human. On the procedure: Penetration of NaD1 through human nails was measured according to the method of Hui et al. (2002) J Pharm Sci 91(1):189-195. Human toenails were obtained from ScienceCare (USA) and washed with phosphate buffered saline (details, PBS) before being placed on a kimwipe that had been soaked in PBS for 3 h to rehydrate the nail. The nail was then placed in a plastic nail adapter with a dosing area of 0.5×0.5 cm (Permagear, USA) and a cotton bud wetted with 75 microlitres of PBS was placed in the receptor chamber in contact with the underside of the nail.
The cotton bud in contact with the underside of the nail was removed after 24 h and every 24 h following. Protein that had passed through the nail was recovered from the cotton bud by washing twice with 500 μL of 0.1% v/v trifluoroacetic acid. Recovered protein was quantified using RP-HPLC.

The next data set relates to Escherichia coli. The data set is described as follows: Inhibition of the growth of Escherichia coli. It counts as cell-based. As to conditions: 0.1625-10 μM, 18 hours, 37° C. On the procedure:
A single E. coli colony was used to inoculate 5 ml of Luria-Bertani media and grown overnight at 37° C. The following day, the optical density of the culture was measured and the E. coli diluted to an optical density at 600 nm (OD600) of 0.01 in Mueller-Hinton Broth. Diluted E. coli were added to 96-well plates with defensins at concentrations of 10 μM, 5 μM, 2.5 μM, 1.25 μM, 0.625 μM, 0.3125 μM or 0.1625 μM. Plates were read at OD595 to obtain time zero data points. Plates were incubated at 37° C. for 18 hours before reading again at OD595 to assess the amount of E. coli growth.

Another data set has as its system Trichophyton rubrum. The data set is described as follows: Inhibition of growth of Trichophyton rubrum over 28 days, daily dosing. It counts as cell-based. On the procedure: The inhibitory effect of HXL008 on the growth of Trichophyton rubrum (obtained from the National Mycology Reference Centre, South Australia Pathology at the Women's and Children's Hospital, Adelaide, Australia) was monitored over 28 days.
Spores of T. rubrum, are isolated from sporulating fungus growing on ½ strength Sabouraud dextrose agar. Spores are removed from the plates by the addition of ½ strength potato dextrose broth (PDB). Spore and cell concentrations are measured using a hemocytometer.
Spores were diluted to a concentration of 5×10^4 spores/mL in ½ PBD (2 mL) containing 0, 10 or 50 μg/mL HXL008. Cultures are incubated at 30 C without shaking. After 24 h, 100 μL of each culture is extracted and plated onto ½ SDA plates. An additional 100 uL of ½ PDB is then added containing either 0, 20 or 100 μg of HXL008. SDA plates are then incubated at 30 C for 5 days. This process is repeated every 24 h for 28 days. After 15 days, the culture containing no HXL008 becomes too thick to pipette and is no longer used in the assay.

In the case of “HXL008: Class I plant defensin from Picramnia pentandra, SEQ ID NO: 1 (KVCTKPSKFFKGLCGTDGACTTACRKEGLHSGYCQLKGFLNSVCVCRKHC; HXL008 Picramnia pentandra)”, the “Surviving colonies on agar plates after incubation with HXL008” value in data set [1] is 1-3 colonies. Moreover, the “Antifungal activity across the range of fungal pathogens, result in words” value in data set [2] was “most effective plant defensins across the range of fungal pathogens”. Further, the “U937 cells permeabilized (PI-positive)” value in data set [3] was “less than 2%”. In data set [4], the “Nail penetration, result in words” value was “able to penetrate nails faster and more effectively than the active ingredients of current topical onychomycosis therapies”. Further, the “Growth of E. coli in the presence of defensin” value in the data set on Escherichia coli is recorded as “did not inhibit growth of E. coli at the concentrations tested”. In the data set on Trichophyton rubrum (10 μg/mL or 50 μg/mL, over the duration of the assay (28 days)), the “Visible growth of T. rubrum in culture” value is “did not display any visible growth”. Also, the “T. rubrum cells killed” value with Trichophyton rubrum (HXL008 50 μg/mL, within 24 h) is given as “more than 80%”. The “Surviving colonies per plate” value with Trichophyton rubrum (after 20 days of treatment, 100 μL plated) is on record as 0 or only 1.

The record behind these values is patent US11446354B2, “Method of treatment” (Hexima Limited, priority 2014, dated 2022).
